Experimental data from the supplement of paper PMC11451515.

Tested on: SEM cells
Test: cell viability relative to DMSO control; higher = less cytotoxic
Conditions: 48 h
Outline: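 Viability is a per-plate percentage relative to DMSO wells, with cell-free wells as background. CellTiter-Glo One luminescence was read after 48 h at 37°C on 1536-well plates (5 μl) of NOMO1 or SEM (500 cells/well) or P12-Ichikawa (1000 cells/well) leukemia cells. The cells had been adapted for at least four passages in each medium and pin-dosed with library compounds in DMSO from 47 μM to 0.79 nM in 11 threefold steps.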

[1] = HPLM + 10% dialyzed FBS, 0.000781 µM
[2] = HPLM + 10% dialyzed FBS, 0.00234 µM
[3] = HPLM + 10% dialyzed FBS, 0.00702 µM
[4] = HPLM + 10% dialyzed FBS, 0.0211 µM
[5] = HPLM + 10% dialyzed FBS, 0.0632 µM
[6] = HPLM + 10% dialyzed FBS, 0.19 µM
[7] = HPLM + 10% dialyzed FBS, 0.569 µM
[8] = HPLM + 10% dialyzed FBS, 1.71 µM
[9] = HPLM + 10% dialyzed FBS, 5.12 µM
[10] = HPLM + 10% dialyzed FBS, 15.4 µM
[11] = HPLM + 10% dialyzed FBS, 46.1 µM
[12] = RPMI 5 mM glucose + 10% FBS, 0.000781 µM
[13] = RPMI 5 mM glucose + 10% FBS, 0.00234 µM
[14] = RPMI 5 mM glucose + 10% FBS, 0.00702 µM
[15] = RPMI 5 mM glucose + 10% FBS, 0.0211 µM
[16] = RPMI 5 mM glucose + 10% FBS, 0.0632 µM
[17] = RPMI 5 mM glucose + 10% FBS, 0.19 µM
[18] = RPMI 5 mM glucose + 10% FBS, 0.569 µM
[19] = RPMI 5 mM glucose + 10% FBS, 1.71 µM
[20] = RPMI 5 mM glucose + 10% FBS, 5.12 µM
[21] = RPMI 5 mM glucose + 10% FBS, 15.4 µM
[22] = RPMI 5 mM glucose + 10% FBS, 46.1 µM
[23] = RPMI 5 mM glucose + 10% dialyzed FBS, 0.000781 µM
[24] = RPMI 5 mM glucose + 10% dialyzed FBS, 0.00234 µM
[25] = RPMI 5 mM glucose + 10% dialyzed FBS, 0.00702 µM
[26] = RPMI 5 mM glucose + 10% dialyzed FBS, 0.0211 µM
[27] = RPMI 5 mM glucose + 10% dialyzed FBS, 0.0632 µM
[28] = RPMI 5 mM glucose + 10% dialyzed FBS, 0.19 µM
[29] = RPMI 5 mM glucose + 10% dialyzed FBS, 0.569 µM
[30] = RPMI 5 mM glucose + 10% dialyzed FBS, 1.71 µM
[31] = RPMI 5 mM glucose + 10% dialyzed FBS, 5.12 µM
[32] = RPMI 5 mM glucose + 10% dialyzed FBS, 15.4 µM
[33] = RPMI 5 mM glucose + 10% dialyzed FBS, 46.1 µM

Structure (SMILES) | cell viability [1] [%] | cell viability [2] [%] | cell viability [3] [%] | cell viability [4] [%] | cell viability [5] [%] | cell viability [6] [%] | cell viability [7] [%] | cell viability [8] [%] | cell viability [9] [%] | cell viability [10] [%] | cell viability [11] [%] | cell viability [12] [%] | cell viability [13] [%] | cell viability [14] [%] | cell viability [15] [%] | cell viability [16] [%] | cell viability [17] [%] | cell viability [18] [%] | cell viability [19] [%] | cell viability [20] [%] | cell viability [21] [%] | cell viability [22] [%] | cell viability [23] [%] | cell viability [24] [%] | cell viability [25] [%] | cell viability [26] [%] | cell viability [27] [%] | cell viability [28] [%] | cell viability [29] [%] | cell viability [30] [%] | cell viability [31] [%] | cell viability [32] [%] | cell viability [33] [%]
COC1=C(OCCCN2CCOCC2)C=CC\3=C1/N=C(/NC(=O)C4=CN=C(N)N=C4)N5CC/N=C35 | 95.2 | 94.2 | 102 | 99.2 | 97.4 | 77.2 | 69.4 | 65.8 | 57.3 | 47.6 | 37.4 | 128 | 119 | 110 | 106 | 104 | 97.6 | 82.4 | 88.1 | 72 | 63 | 42.8 | 89.3 | 101 | 93.2 | 95.5 | 86.3 | 83 | 66.5 | 59.3 | 56.6 | 51.8 | 35.1
Nc1ccc([S+](=O)([O-])Nc2ccnn2-c2ccccc2)cc1 | 76.6 | 89.9 | 80.9 | 97.8 | 87.8 | 98.8 | 109 | 95.5 | 94.8 | 93.8 | 93 | 89.4 | 92.8 | 105 | 102 | 88.8 | 98.2 | 114 | 102 | 89 | 96.2 | 116 | 95.1 | 89.5 | 104 | 86.2 | 97.5 | 88 | 107 | 94.8 | 115 | 106 | 104
CC(=O)Oc1ccccc1C(=O)Nc1ncc([N+](=O)[O-])s1 | 85.4 | 88.9 | 89 | 91.3 | 84.3 | 107 | 98.3 | 104 | 96.9 | 93.1 | 66.3 | 85 | 100 | 92.6 | 101 | 90.5 | 107 | 94.7 | 101 | 104 | 85.4 | 79.6 | 87.1 | 93 | 99.6 | 100 | 108 | 106 | 101 | 104 | 100 | 94.2 | 82.7
COC(=O)C\1=C(C)\N\C(=C(/C1C2=CC=CC3=NON=C23)C(=O)OC(C)C)C (stereo not drawn) | 105 | 98.6 | 97.7 | 105 | 109 | 100 | 95 | 83.6 | 110 | 90.4 | 80.1 | 87.2 | 96.4 | 107 | 126 | 101 | 100 | 98.2 | 95 | 85.5 | 88 | 78.6 | 98.9 | 96.9 | 104 | 110 | 111 | 114 | 114 | 95.2 | 87.2 | 99.2 | 70.8
CCCCCNC(=O)N1CCC(CN(Cc2ccc(Cl)cc2)Cc2ccc([N+](=O)[O-])s2)C1 (stereo not drawn) |  |  |  |  |  |  |  |  |  |  |  | 113 | 118 | 129 | 116 | 134 | 120 | 122 | 126 | 121 | 79.5 | 56.1 | 113 | 134 | 108 | 107 | 114 | 128 | 121 | 127 | 132 | 102 | 48.2
OCC(O)C(O)C(O)CO (stereo not drawn) | 85.4 | 83.7 | 98.2 | 101 | 103 | 102 | 73.8 | 94.7 | 91.6 | 37.5 | 88.9 | 89 | 91.1 | 92.2 | 95.9 | 109 | 102 | 80.2 | 103 | 97.8 | 29.8 | 86.4 | 103 | 105 | 102 | 101 | 88.6 | 89.1 | 64.6 | 91.5 | 109 | 30.3 | 93
CC12CC3CC(C)(C1)CC(N)(C3)C2 | 89.4 | 107 | 93.2 | 105 | 96.7 | 99.4 | 127 | 126 | 103 | 114 | 105 | 106 | 94.4 | 105 | 109 | 110 | 106 | 122 | 114 | 133 | 123 | 131 | 84.3 | 86.8 | 88.6 | 116 | 102 | 104 | 110 | 103 | 101 | 95.5 | 104
COC1=CC=C(C(=C1)OC(C)C)C/2=N/[C@@H]([C@@H](N2C(=O)N3CCNC(=O)C3)C4=CC=C(Cl)C=C4)C5=CC=C(Cl)C=C5 | 92.4 | 110 | 112 | 106 | 87.1 | 56.5 | 42.5 | 33.1 | 29.2 | 16.1 | 5.42 | 100 | 125 | 99.9 | 105 | 60.6 | 55.6 | 46.5 | 34.5 | 23.6 | 6.03 | 1.48 | 101 | 106 | 101 | 83.5 | 79.8 | 45.1 | 41.1 | 27.8 | 20.5 | 12.3 | 3.12
